From PubChem BioAssay AID256 (DTP/NCI, 2004)
Values joined by “and” are separate entries in the source; they are usually repeats but may differ in a detail not shown here. Equal values may be shown once. Toxic doses and inconclusive results are not listed. The calls were made as follows: active = survival T/C of 150% or more; inactive = T/C below 125% in these data.

System: CD2F1 mice, L1210 leukemia ip, survival T/C
Test: NCI In Vivo Anticancer Drug Screen. Data for tumor model L1210 Leukemia (intraperitoneal) in CD2F1 (CDF1) mice
Conditions: higher = longer survival
In short: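 Vehicle-treated tumor-bearing mice served as controls (C) for compound-treated mice (T). Reported figure is T divided by C.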

[1] = endpoint: mean survival time, dose: 100.0 mg/kg/injection, schedule: Q04DX003 (ip), vehicle: saline
[2] = endpoint: mean survival time, dose: 200.0 mg/kg/injection, schedule: Q04DX003 (ip), vehicle: saline
[3] = endpoint: mean survival time, dose: 400.0 mg/kg/injection, schedule: Q04DX003 (ip), vehicle: saline
[4] = endpoint: mean survival time, dose: 50.0 mg/kg/injection, schedule: Q01DX009 (ip), vehicle: other
[5] = endpoint: mean survival time, dose: 100.0 mg/kg/injection, schedule: Q01DX009 (ip), vehicle: other
[6] = endpoint: mean survival time, dose: 100.0 mg/kg/injection, schedule: Q04DX003 (ip), vehicle: other
[7] = endpoint: mean survival time, dose: 200.0 mg/kg/injection, schedule: Q01DX009 (ip), vehicle: other
[8] = endpoint: mean survival time, dose: 200.0 mg/kg/injection, schedule: Q04DX003 (ip), vehicle: other
[9] = endpoint: mean survival time, dose: 100.0 mg/kg/injection, schedule: Q04DX003 (ip), vehicle: saline with Tween-80
[10] = endpoint: mean survival time, dose: 200.0 mg/kg/injection, schedule: Q04DX003 (ip), vehicle: saline with Tween-80
[11] = endpoint: mean survival time, dose: 400.0 mg/kg/injection, schedule: Q04DX003 (ip), vehicle: saline with Tween-80
[12] = endpoint: mean survival time, dose: 100.0 mg/kg/injection, schedule: Q01DX009 (ip), vehicle: Klucel (hydroxypropylcellulose) (HPC)
[13] = endpoint: mean survival time, dose: 25.0 mg/kg/injection, schedule: Q01DX009 (ip), vehicle: saline with Tween-80
[14] = endpoint: mean survival time, dose: 50.0 mg/kg/injection, schedule: Q01DX009 (ip), vehicle: saline with Tween-80
[15] = endpoint: mean survival time, dose: 100.0 mg/kg/injection, schedule: Q01DX009 (ip), vehicle: saline with Tween-80
[16] = endpoint: mean survival time, dose: 100.0 mg/kg/injection, schedule: Q01DX001 (ip), vehicle: saline with Tween-80
[17] = endpoint: mean survival time, dose: 400.0 mg/kg/injection, schedule: Q01DX009 (ip), vehicle: other
[18] = endpoint: mean survival time, dose: 200.0 mg/kg/injection, schedule: Q01DX009 (ip), vehicle: saline with Tween-80
[19] = endpoint: mean survival time, dose: 400.0 mg/kg/injection, schedule: Q01DX009 (ip), vehicle: saline with Tween-80

Measured: T/C

CO[C@@]12[C@H](COC(N)=O)C3=C(C(=O)C(C)=C(NCCO)C3=O)N1C[C@@H]1N[C@@H]12
inactive: endpoint: mean survival time, dose: 10.2 mg/kg/injection, schedule: Q01DX001 (ip), vehicle: saline 96 % of control | endpoint: mean survival time, dose: 15.5 mg/kg/injection, schedule: Q01DX001 (ip), vehicle: saline 96 % of control | endpoint: mean survival time, dose: 23.2 mg/kg/injection, schedule: Q01DX001 (ip), vehicle: saline 112 % of control

CC1(C)OC1(C)C
inactive: [1] 97 % of control | [2] 104 % of control | [3] 97 % of control

CC(=O)c1ccc(C(=O)CC(O)(C(F)(F)F)C(F)(F)F)cc1
inactive: [4] 98 % of control | [5] 104 % of control | [6] 95 % of control | [7] 106 % of control | [8] 97 % of control

CC(CP(=O)(c1ccccc1)c1ccccc1)C(=O)O (configuration not stated)
inactive: [9] 92 % of control | [10] 95 % of control | [11] 101 % of control

O=C(Oc1ccccc1)c1cc(O)c(O)c(O)c1
inactive: endpoint: median survival time, dose: 25.0 mg/kg/injection, schedule: Q01DX009 (ip), vehicle: saline with Tween-80 101 % of control | endpoint: median survival time, dose: 50.0 mg/kg/injection, schedule: Q01DX009 (ip), vehicle: saline with Tween-80 98 % of control | endpoint: median survival time, dose: 100.0 mg/kg/injection, schedule: Q01DX009 (ip), vehicle: saline with Tween-80 105 % of control | endpoint: median survival time, dose: 200.0 mg/kg/injection, schedule: Q01DX009 (ip), vehicle: saline with Tween-80 112 % of control

O=[N+]([O-])c1c(Cl)cc(Cl)c(-c2c(Cl)cc(Cl)c([N+](=O)[O-])c2Cl)c1Cl
inactive: endpoint: mean survival time, dose: 12.5 mg/kg/injection, schedule: Q01DX009 (ip), vehicle: water 97 % of control | endpoint: mean survival time, dose: 25.0 mg/kg/injection, schedule: Q01DX009 (ip), vehicle: water 100 % of control | endpoint: mean survival time, dose: 50.0 mg/kg/injection, schedule: Q01DX009 (ip), vehicle: water 94 % of control | endpoint: mean survival time, dose: 100.0 mg/kg/injection, schedule: Q01DX009 (ip), vehicle: water 95 % of control | endpoint: mean survival time, dose: 200.0 mg/kg/injection, schedule: Q01DX009 (ip), vehicle: water 94 % of control

COc1ccc(NC(=O)C2C3C=CC(C3)C2C(=O)O)cc1 (configuration not stated)
inactive: [9] 98 % of control | [10] 98 % of control

O=C(O)CCCC1CCc2ccccc2C1 (configuration not stated)
inactive: [12] 96 % of control | endpoint: mean survival time, dose: 200.0 mg/kg/injection, schedule: Q01DX009 (ip), vehicle: Klucel (hydroxypropylcellulose) (HPC) 102 % of control | endpoint: mean survival time, dose: 400.0 mg/kg/injection, schedule: Q01DX009 (ip), vehicle: Klucel (hydroxypropylcellulose) (HPC) 97 % of control

NC1=NC(c2ccc(Cl)cc2)N(c2ccc(S(N)(=O)=O)cc2)C(N)=N1 (configuration not stated)
inactive: [13] 100 % of control | [14] 100 % of control | [15] 96 % of control

CCN(CC)CCCNC(C)=O
inactive: [1] 98 % of control | [2] 96 % of control | [3] 101 % of control

NC(=O)C(N)CCO (configuration not stated)
inactive: endpoint: mean survival time, dose: 75.0 mg/kg/injection, schedule: Q01DX009 (ip), vehicle: saline 92 % of control | endpoint: mean survival time, dose: 75.0 mg/kg/injection, schedule: Q04DX003 (ip), vehicle: saline 97 % of control | endpoint: mean survival time, dose: 150.0 mg/kg/injection, schedule: Q01DX009 (ip), vehicle: saline 102 % of control | endpoint: mean survival time, dose: 150.0 mg/kg/injection, schedule: Q04DX003 (ip), vehicle: saline 95 % of control | endpoint: mean survival time, dose: 300.0 mg/kg/injection, schedule: Q01DX009 (ip), vehicle: saline 97 % of control | endpoint: mean survival time, dose: 300.0 mg/kg/injection, schedule: Q04DX003 (ip), vehicle: saline 95 % of control

O=C(O)CNS(=O)(=O)c1ccccc1
inactive: [9] 98 % of control | [10] 101 % of control | [11] 93 % of control

CC(C)(C)OC(=O)N/N=C1\CC2CCC1C2 (configuration not stated)
inactive: [13] 107 % of control

CCN(CC)[S+](C)(=O)/C=C(\[O-])Nc1ccccc1 (configuration not stated)
inactive: endpoint: mean survival time, dose: 25.0 mg/kg/injection, schedule: Q01DX001 (ip), vehicle: other 103 % of control | endpoint: mean survival time, dose: 50.0 mg/kg/injection, schedule: Q01DX001 (ip), vehicle: other 94 % of control | endpoint: mean survival time, dose: 100.0 mg/kg/injection, schedule: Q01DX001 (ip), vehicle: other 90 % of control

COc1cc(NC(=O)O/N=C/c2ccccn2)cc(OC)c1OC
inactive: [16] 95 % of control | endpoint: mean survival time, dose: 400.0 mg/kg/injection, schedule: Q01DX001 (ip), vehicle: saline with Tween-80 92 % of control

C=CS(=O)(=O)c1ccccc1
inactive: endpoint: mean survival time, dose: 18.0 mg/kg/injection, schedule: Q01DX009 (ip), vehicle: saline with Tween-80 96 % of control | endpoint: mean survival time, dose: 36.0 mg/kg/injection, schedule: Q01DX009 (ip), vehicle: saline with Tween-80 93 % of control | endpoint: mean survival time, dose: 72.0 mg/kg/injection, schedule: Q01DX009 (ip), vehicle: saline with Tween-80 112 % of control

Nc1nnnn1-c1ccc(O)cc1
inactive: [9] 104 % of control | [10] 98 % of control | [11] 104 % of control

O=C1CCC2(c3ccccc3)C1C2c1ccccc1 (configuration not stated)
inactive: [9] 110 % of control | [10] 112 % of control | [11] 101 % of control

O=c1cc(O)c(Cl)n[nH]1
inactive: endpoint: mean survival time, dose: 25.0 mg/kg/injection, schedule: Q01DX009 (ip), vehicle: other 94 % of control | [4] 94 % of control | [5] 97 % of control | [7] 92 % of control | [17] 88 % of control

CC(C)OC(=O)Nc1ccc(F)c(F)c1
inactive: [15] 95 % of control | [18] 98 % of control | [19] 114 % of control

N#CC(C(=O)c1ccccc1)c1ccccc1 (configuration not stated)
inactive: endpoint: mean survival time, dose: 75.0 mg/kg/injection, schedule: Q01DX001 (ip), vehicle: other 100 % of control | endpoint: mean survival time, dose: 150.0 mg/kg/injection, schedule: Q01DX001 (ip), vehicle: other 101 % of control | endpoint: mean survival time, dose: 300.0 mg/kg/injection, schedule: Q01DX001 (ip), vehicle: other 106 % of control

CC(=O)OC1=NC(C)c2c1cc(OC(C)=O)[nH]c2=O (configuration not stated)
inactive: endpoint: mean survival time, dose: 6.25 mg/kg/injection, schedule: Q01DX009 (ip), vehicle: Klucel (hydroxypropylcellulose) (HPC) 104 % of control and 107 % of control | endpoint: mean survival time, dose: 12.5 mg/kg/injection, schedule: Q01DX009 (ip), vehicle: Klucel (hydroxypropylcellulose) (HPC) 101 % of control and 106 % of control | endpoint: mean survival time, dose: 25.0 mg/kg/injection, schedule: Q01DX009 (ip), vehicle: Klucel (hydroxypropylcellulose) (HPC) 104 % of control and 110 % of control | endpoint: mean survival time, dose: 50.0 mg/kg/injection, schedule: Q01DX009 (ip), vehicle: Klucel (hydroxypropylcellulose) (HPC) 100 % of control and 101 % of control | [12] 113 % of control and 102 % of control

CN(C)c1ccc(-c2c3cc(O)c(=O)cc-3oc3cc(O)c(O)cc23)cc1
inactive: [14] 92 % of control | [15] 95 % of control | [18] 91 % of control

CCCCCCCCCCC(=O)CCCCC
inactive: [5] 101 % of control | [6] 105 % of control | [7] 107 % of control | [8] 100 % of control | [17] 104 % of control | endpoint: mean survival time, dose: 400.0 mg/kg/injection, schedule: Q04DX003 (ip), vehicle: other 94 % of control

CCC(C(=O)OCCNC1CCCCC1)c1ccccc1 (configuration not stated)
inactive: endpoint: mean survival time, dose: 75.0 mg/kg/injection, schedule: Q01DX001 (ip), vehicle: saline 110 % of control

CC(C)CCCC(C)C1CCC2C3CCC4=CC5(CCC4(C)C3CCC12C)SCCS5 (configuration not stated)
inactive: [16] 87 % of control | endpoint: mean survival time, dose: 200.0 mg/kg/injection, schedule: Q01DX001 (ip), vehicle: saline with Tween-80 91 % of control

c1cc[c]([Pb]([c]2ccccc2)([c]2ccccc2)[n]2cccc2)cc1
inactive: endpoint: mean survival time, dose: 6.25 mg/kg/injection, schedule: Q01DX009 (ip), vehicle: acetone 96 % of control | endpoint: mean survival time, dose: 12.5 mg/kg/injection, schedule: Q01DX009 (ip), vehicle: acetone 88 % of control | endpoint: mean survival time, dose: 12.5 mg/kg/injection, schedule: Q04DX003 (ip), vehicle: acetone 88 % of control | endpoint: mean survival time, dose: 25.0 mg/kg/injection, schedule: Q04DX003 (ip), vehicle: acetone 93 % of control

Nc1nc(N)c2cc(CNc3ccc(C(=O)NC(CC(=O)O)C(=O)O)c(Cl)c3)ccc2n1 (configuration not stated)
active: endpoint: mean survival time, dose: 5.0 mg/kg/injection, schedule: Q01DX001 (ip), vehicle: saline 160 % of control

OC1C2CC3C(C2)C13 (configuration not stated)
inactive: [15] 102 % of control and 106 % of control | [18] 96 % of control | [19] 98 % of control and 102 % of control

CCCC1OC(C)CC(C)(C)O1 (configuration not stated)
inactive: endpoint: mean survival time, dose: 50.0 mg/kg/injection, schedule: Q01DX009 (ip), vehicle: saline 94 % of control | endpoint: mean survival time, dose: 100.0 mg/kg/injection, schedule: Q01DX009 (ip), vehicle: saline 110 % of control | endpoint: mean survival time, dose: 200.0 mg/kg/injection, schedule: Q01DX009 (ip), vehicle: saline 90 % of control
